Values quoted from earlier work, collected in patent publication US6525037B1, “Method of treating atherosclerosis and complications resulting therefrom” (BioNumerik Pharmaceuticals, Inc., priority 2000, dated 2003).

Conditions: accepted value

Compound: [Cl-].[Na+] [common table salt]
- oral LD50: 3750 mg/kg
